# Experimental data as given in BindingDB's records for doi:10.1016/j.chembiol.2009.01.006 (Johns Hopkins School of Medicine, 2009).
# Columns and labels:
# [1] = target: Methionine aminopeptidase 2 (Plasmodium falciparum, UniProt Q8TA23); experiment: Enzyme Inhibiton Assay
# Excerpt: (§1) Enzyme affinity assay using Fumarranol analogs with plasmodium falciparum methionine aminopeptidases (PfMetAPs).
# [2] = target: T1, Methionine aminopeptidase (Plasmodium falciparum Santa Lucia, UniProt W7G645); experiment: Enzyme Inhibiton Assay
# T1 sequence (W7G645 whole entry): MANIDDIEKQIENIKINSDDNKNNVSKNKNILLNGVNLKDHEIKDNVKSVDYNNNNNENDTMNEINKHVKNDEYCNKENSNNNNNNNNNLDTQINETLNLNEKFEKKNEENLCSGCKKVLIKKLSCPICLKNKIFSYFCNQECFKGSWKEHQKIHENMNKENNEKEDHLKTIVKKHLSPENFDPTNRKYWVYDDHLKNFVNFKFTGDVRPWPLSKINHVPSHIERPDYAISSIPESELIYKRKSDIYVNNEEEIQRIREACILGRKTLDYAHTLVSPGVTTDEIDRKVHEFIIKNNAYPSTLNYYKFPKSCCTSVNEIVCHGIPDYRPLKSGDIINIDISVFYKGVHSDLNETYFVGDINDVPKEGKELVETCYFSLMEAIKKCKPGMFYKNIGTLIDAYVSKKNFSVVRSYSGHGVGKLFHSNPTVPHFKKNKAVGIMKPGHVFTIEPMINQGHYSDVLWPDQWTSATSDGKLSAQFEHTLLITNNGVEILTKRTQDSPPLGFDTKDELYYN
# Excerpt: as §1
# Chain of Methionine aminopeptidase 2 (Q8TA23 whole entry): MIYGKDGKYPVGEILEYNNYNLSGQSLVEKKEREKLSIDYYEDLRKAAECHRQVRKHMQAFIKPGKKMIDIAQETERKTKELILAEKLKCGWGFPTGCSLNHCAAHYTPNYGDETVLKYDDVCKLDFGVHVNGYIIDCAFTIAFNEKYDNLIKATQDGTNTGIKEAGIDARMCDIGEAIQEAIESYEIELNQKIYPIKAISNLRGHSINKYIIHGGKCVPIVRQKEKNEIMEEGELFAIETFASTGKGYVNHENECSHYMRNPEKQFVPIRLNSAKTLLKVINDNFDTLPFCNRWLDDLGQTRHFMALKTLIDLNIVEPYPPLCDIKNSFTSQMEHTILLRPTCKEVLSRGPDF
Structure (SMILES),IC50 [1],IC50 [2]
"CO[C@]12C(=O)CC[C@@]1(C=O)C2[C@@]1(C)O[C@@H]1CC=C(C)C (some centres not stated) [Fumarranol Analog, 7]",> 500 µM,
"CO[C@@H]1[C@H](OC(=O)NC(=O)CCl)CC[C@]2(CO2)[C@H]1[C@@]1(C)O[C@@H]1CC=C(C)C [(3R,4S,5S,6R)-5-methoxy-4-[(2R,3R)-2-methyl-3-(3-methylbut-2-en-1-yl)oxiran-2-yl]-1-oxaspiro[2.5]octan-6-yl N-(2-chloroacetyl)carbamate]",2 µM,> 300 µM
"CO[C@]12C(=O)CC[C@@]1(CO)C2/C(C)=C/CC=C(C)C (some centres not stated) [Fumarranol Analog, 8]",> 500 µM,
"CO[C@]12C(=O)CC[C@@]1(CBr)C2[C@@]1(C)O[C@@H]1CC=C(C)C (some centres not stated) [Fumarranol Analog, 6]",> 500 µM,
"CO[C@]12C(=O)/C(=C/c3ccco3)C[C@@]1(CO)C2[C@@]1(C)O[C@@H]1CC=C(C)C (some centres not stated) [Fumarranol Analog, 9]",> 500 µM,
"CO[C@@]12C([C@@]3(C)O[C@@H]3CC=C(C)C)[C@]1(CO)CC[C@H]2O (some centres not stated) [Fumarranol Analog, 10]",> 500 µM,
